In assay [1] the target is T1, cholesterol-5,6-epoxide hydrolase (ChEH) (Rattus norvegicus, UniProt Q9JJ46+Q9Z2Z8).
T1 construct: from tissue; host or cells: rat liver microsomes
T1 sequence (Q9JJ46 2-230 limits assumed): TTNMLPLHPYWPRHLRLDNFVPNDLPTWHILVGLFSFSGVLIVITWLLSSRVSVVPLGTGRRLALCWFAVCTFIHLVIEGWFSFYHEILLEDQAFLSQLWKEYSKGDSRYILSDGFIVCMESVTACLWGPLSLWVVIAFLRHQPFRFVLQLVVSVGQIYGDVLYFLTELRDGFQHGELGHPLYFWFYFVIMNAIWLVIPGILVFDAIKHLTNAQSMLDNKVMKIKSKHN
T1 sequence (Q9Z2Z8 1-471): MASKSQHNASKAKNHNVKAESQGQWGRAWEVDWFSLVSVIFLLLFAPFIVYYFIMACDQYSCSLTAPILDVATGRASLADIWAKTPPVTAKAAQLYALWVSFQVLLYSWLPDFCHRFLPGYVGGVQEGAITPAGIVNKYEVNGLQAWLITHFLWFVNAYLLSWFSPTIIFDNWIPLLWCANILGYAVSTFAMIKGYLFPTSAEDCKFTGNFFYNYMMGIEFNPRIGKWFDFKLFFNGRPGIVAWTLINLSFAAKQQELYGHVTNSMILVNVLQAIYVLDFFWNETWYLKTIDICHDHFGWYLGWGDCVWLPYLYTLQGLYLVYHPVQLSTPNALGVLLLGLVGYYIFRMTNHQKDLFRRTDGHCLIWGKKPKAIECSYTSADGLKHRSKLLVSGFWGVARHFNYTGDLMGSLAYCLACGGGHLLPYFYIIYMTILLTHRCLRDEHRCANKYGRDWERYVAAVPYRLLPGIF
The assay can be described thus: Cholesterol epoxide hydrolase (ChEH) inhibition assay. It counts as biochemical. As to conditions: 150 μg rat liver microsomal proteins, 10 and 20 μM [14C]α-CE, compounds 0.01 to 1000 μM.
Description: Inhibition of ChEH activity was measured as described previously on a whole-cell assay using MCF-7 cells [33]. […] Cells were treated for 24 h with 0.6 μM [^14C]α-CE.
The mixtures were incubated over a period of 0 to 30 min. The tubes were placed in ice cold distilled water to stop the reaction and the addition of 1.5 mL chloroform/methanol (2:1) and reaction buffer (500 mL) followed. After vortexing, the lower phase was aspirated and the residual aqueous phase was extracted with chloroform (1.5 mL). The organic extracts were combined and dried under a gentle stream of nitrogen, followed by suspension in ethanol (60 µL).
Samples were applied to TLC plates that had been heated previously for 1 h at 100 °C and were developed using ethyl acetate. The regions corresponding to authentic CE and cholestane-3β,5α,6β-triol standards were visualized by iodine vapour. Radioactive metabolites were visualized using a Storm apparatus (GE Healthcare) and quantified by densitometry with the software ImageQuant version 5.2 (GE Healthcare).

The target of the next assay is T2, ACAT in U-87 cells (Homo sapiens, UniProt P35610).
T2 construct: endogenous in cells; host or cells: MCF-7, MDA-MB-231, U-87
T2 sequence (P35610 1-550): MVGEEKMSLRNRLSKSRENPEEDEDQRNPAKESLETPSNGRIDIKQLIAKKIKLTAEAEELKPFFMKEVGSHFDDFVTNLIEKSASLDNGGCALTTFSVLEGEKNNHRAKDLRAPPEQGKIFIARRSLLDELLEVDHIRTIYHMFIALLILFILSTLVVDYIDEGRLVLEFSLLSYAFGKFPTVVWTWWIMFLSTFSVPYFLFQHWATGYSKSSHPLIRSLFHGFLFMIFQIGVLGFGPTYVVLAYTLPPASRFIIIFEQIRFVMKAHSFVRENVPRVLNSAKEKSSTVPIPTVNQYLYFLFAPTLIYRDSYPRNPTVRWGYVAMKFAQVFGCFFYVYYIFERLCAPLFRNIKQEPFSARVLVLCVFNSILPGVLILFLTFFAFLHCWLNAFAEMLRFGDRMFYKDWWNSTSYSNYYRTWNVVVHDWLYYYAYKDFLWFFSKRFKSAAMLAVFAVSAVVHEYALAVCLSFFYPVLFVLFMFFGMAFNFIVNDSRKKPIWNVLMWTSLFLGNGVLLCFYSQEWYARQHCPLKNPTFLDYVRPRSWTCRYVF
The assay can be described thus: ACAT activity in intact U-87 cells. As to conditions: U-87, 24 h, [14C]cholesterol; for IC50: read-out: IC50, inhibition of ACAT activity in intact cells. Format: cell-based. As to the method: (§1) MCF-7, MB-231, U-87 and 3T3-EA cells were plated on six-well plates (40,000 cells/well). ACAT activity in intact cells was measured as described previously. Cells were preincubated for 15 min. with solvent vehicle or increasing concentrations of BrA ranging from 1 to 200 μM in complete medium. [^14C]Cholesterol (0.2 μCi/well) was added and the cells were incubated for 24 h. At the end of the incubation, intracellular and secreted lipids in the supernatant were extracted and then separated by TLC as described previously. Free and esterified cholesterol were identified using purified ^14C commercial standards and the radioactivity of each individual lipid was quantified using a phosphor screen (Storm; GE Healthcare, Chicago, IL, USA). ACAT activity is expressed as the percentage of the ACAT activity measured in the absence of inhibitors (cells treated with solvent vehicle).
(§2) Cells were plated on 6-well plates. […]. [^14C]cholesterol (0.2 μCi/well) was added and cells were incubated for 24 h. At the end of the incubation, intracellular lipids were extracted as described in [30] and then separated by TLC as described previously. Free and esterified cholesterol were identified using purified [^14C] standards and the radioactivity associated with each individual lipid was quantified using a Phosphoscreen (Storm; Molecular Dynamics). ACAT activity is expressed as the percentage of the ACAT activity measured in the absence of inhibitors (cells treated with solvent vehicle).

The target in another assay is ERβ (Homo sapiens, UniProt Q92731). Description: Oestrogen receptor competition binding assay, ERβ. As to conditions: n.m. = no measurable inhibition of binding. As to the method:
(§3) Competition binding to ERα and ERβ was measured exactly as described previously.

The next assay has as its target T3, ACAT in MB-231 cells (Homo sapiens, UniProt P35610).
T3 construct: endogenous in cells; host or cells: MCF-7, MDA-MB-231, U-87
T3 sequence (P35610 1-550): T2 sequence (P35610 1-550)
The assay can be described thus: ACAT activity in intact MB-231 cells. It counts as cell-based. As to conditions: MB-231, 24 h, [14C]cholesterol; for IC50: read-out: IC50, inhibition of ACAT activity in intact cells. As to the method: as §1, §2

The target in a further assay is T4, ERα (Homo sapiens, UniProt P03372).
T4 sequence (P03372 1-595): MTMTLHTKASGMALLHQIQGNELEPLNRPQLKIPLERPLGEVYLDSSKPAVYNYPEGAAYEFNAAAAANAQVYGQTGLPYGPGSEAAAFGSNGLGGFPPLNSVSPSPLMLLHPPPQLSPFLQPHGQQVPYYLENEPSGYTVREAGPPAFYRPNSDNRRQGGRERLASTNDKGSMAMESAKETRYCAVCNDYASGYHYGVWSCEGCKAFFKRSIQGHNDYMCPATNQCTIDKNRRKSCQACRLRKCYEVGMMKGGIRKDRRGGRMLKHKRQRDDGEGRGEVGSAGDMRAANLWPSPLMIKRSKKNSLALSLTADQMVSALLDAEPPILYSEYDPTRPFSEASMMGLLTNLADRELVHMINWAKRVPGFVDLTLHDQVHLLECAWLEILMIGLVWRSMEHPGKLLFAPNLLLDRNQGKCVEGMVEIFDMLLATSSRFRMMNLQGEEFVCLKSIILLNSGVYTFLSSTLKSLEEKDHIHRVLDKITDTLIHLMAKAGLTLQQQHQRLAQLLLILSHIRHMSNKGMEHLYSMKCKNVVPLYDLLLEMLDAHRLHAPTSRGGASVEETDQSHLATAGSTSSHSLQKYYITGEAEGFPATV
Description: Oestrogen receptor competition binding assay, ERα. As to conditions: n.m. = no measurable inhibition of binding. As to the method: as §3

The target in the next assay is T5, ACAT in MCF-7 cells (Homo sapiens, UniProt P35610).
T5 construct: endogenous in cells; host or cells: MCF-7, MDA-MB-231, U-87
T5 sequence (P35610 1-550): T2 sequence (P35610 1-550)
Description: ACAT activity in intact MCF-7 cells. As to conditions: MCF-7, 24 h, [14C]cholesterol; for IC50: read-out: IC50, inhibition of ACAT activity in intact cells. It counts as cell-based. As to the method:
as §1, §2

Assay [2] has as its target T6, ACAT in NIH-3T3-CCK2R-E151A cells (3T3-EA) (Mus musculus, UniProt Q61263).
T6 construct: endogenous in cells; host or cells: NIH-3T3-CCK2R-E151A (3T3-EA)
T6 sequence (Q61263 1-540): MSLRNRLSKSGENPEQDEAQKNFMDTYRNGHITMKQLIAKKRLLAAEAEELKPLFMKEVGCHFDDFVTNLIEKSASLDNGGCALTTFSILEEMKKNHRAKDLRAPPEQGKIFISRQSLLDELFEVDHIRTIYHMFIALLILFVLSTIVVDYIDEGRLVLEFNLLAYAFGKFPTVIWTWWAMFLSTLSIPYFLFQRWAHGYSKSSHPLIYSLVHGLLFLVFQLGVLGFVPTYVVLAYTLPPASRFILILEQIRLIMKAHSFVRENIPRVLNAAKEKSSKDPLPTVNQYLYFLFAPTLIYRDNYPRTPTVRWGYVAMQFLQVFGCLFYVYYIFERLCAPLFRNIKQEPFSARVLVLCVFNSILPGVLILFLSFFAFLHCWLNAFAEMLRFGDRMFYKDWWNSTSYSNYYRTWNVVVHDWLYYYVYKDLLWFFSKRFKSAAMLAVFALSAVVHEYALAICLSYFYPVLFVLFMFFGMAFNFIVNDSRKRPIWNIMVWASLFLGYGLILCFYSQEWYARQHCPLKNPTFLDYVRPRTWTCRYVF
Description: ACAT activity in intact 3T3-EA cells. Format: cell-based. As to conditions: 24 h, [14C]cholesterol; for IC50: read-out: IC50, inhibition of ACAT activity in intact cells. As to the method: as §1, §2

Assay [3] deals with MCF-7, MB-231, U-87 and 3T3-EA cells. The assay can be described thus: Clonogenic assay (colony formation). It counts as cell-based. As to conditions: Homo sapiens, MCF7, four tested cell lines, vs solvent vehicle, read-out: inhibition of cancer cell colony formation. As to the method:
Following trypsinization of the cells, they were plated in tissue culture plates (60 mm) at a density of 500–1000 per plate. After adherence for 24 h, the drugs were added at the chosen final concentrations from freshly prepared stock solutions. The plates were washed twice with serum-free medium after 24 to 72 h incubation. Fresh medium was added and the plates were incubated at 37 °C until the colonies became visible. After incubation, the plates were washed with PBS and stained using Coomassie brilliant blue. The stained colonies were counted and are reported as the percentage of control cells (ethanol treated (0.01% (v/v)).

For assay [4] the test system is unchanged. The assay can be described thus: Cell invasion assay (Matrigel-coated filters). It counts as cell-based. As to the method: Cells were added to six-well plates (40,000 cells/well) containing Dulbecco's Modified Eagle Medium (DMEM) and 10% FCS. Following incubation for 24 h, the cells were treated for a further 24 h in the presence of the test compounds, or else vehicle in DMEM and 2% Fetal Calf Serum (FCS). The cells were harvested and counted. Cells (20,000) were placed in serum-free DMEM on the surface of Nunc filters (8 mm diameter, […]; Nalgen Nunc International, Rochester, NY, USA). The filters were coated with growth factor-reduced Matrigel ([…] Matrigel; BD Biosciences, San Jose, CA, USA) in the presence of the test compounds or else vehicle. The base of the filter was filled with 10% FCS/DMEM. Following incubation for 48 h at 37 °C, cells which had invaded the Matrigel and attached themselves to the base of the filter were fixed, stained with Giemsa stain and counted microscopically.

ERβ, sequence (Q92731 whole entry, species assumed): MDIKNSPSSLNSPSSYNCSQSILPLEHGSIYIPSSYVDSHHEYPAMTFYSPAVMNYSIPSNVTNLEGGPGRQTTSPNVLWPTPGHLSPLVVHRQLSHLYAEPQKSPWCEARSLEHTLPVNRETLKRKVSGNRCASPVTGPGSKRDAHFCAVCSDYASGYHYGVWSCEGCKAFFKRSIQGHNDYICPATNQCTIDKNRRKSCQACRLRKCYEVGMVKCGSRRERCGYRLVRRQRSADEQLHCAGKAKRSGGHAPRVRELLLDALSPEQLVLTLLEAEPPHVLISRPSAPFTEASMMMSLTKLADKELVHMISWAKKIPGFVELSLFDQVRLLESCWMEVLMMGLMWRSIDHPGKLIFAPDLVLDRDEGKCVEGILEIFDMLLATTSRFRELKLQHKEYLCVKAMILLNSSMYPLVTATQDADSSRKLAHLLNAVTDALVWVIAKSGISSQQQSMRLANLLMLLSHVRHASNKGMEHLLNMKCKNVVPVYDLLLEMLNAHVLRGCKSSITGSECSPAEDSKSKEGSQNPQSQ

Consider `C[C@]12CC[C@@H]3c4ccc(O)cc4CC[C@H]3[C@@H]1CC[C@@H]2O` [E2, 17β-estradiol], for which, in [1], the “IC50, ChEH inhibition” value is listed as “n.m”.
On to `C=C(C)[C@@H]1CC[C@]2(C(=O)O)CC[C@]3(C)[C@H](CC[C@@H]4[C@@]5(C)CC[C@H](O)C(C)(C)[C@@H]5CC[C@]43C)[C@@H]12` [betulinic acid], for which the “IC50, ChEH inhibition” value in assay [1] is reported as “n.m”. Besides, the IC50 – broadly, the concentration that gives 50% inhibition – was determined as 61.4 ± 9.4 µM at ACAT in U-87 cells, 58.3 ± 8.1 µM on ACAT in MB-231 cells, 53.7 ± 4.2 µM at ACAT in MCF-7 cells and 60.2 ± 8 µM in assay [2]. The “IC50, competition with radiolabelled 17β-estradiol binding to ERβ” value (“IC50, competition … to ERβ” for short) on ERβ is recorded as “n.m”. For the same compound, the “IC50, competition with radiolabelled 17β-estradiol binding to ERα” value at ERα is given as “n.m”.
`CC1(C)[C@@H](O)CC[C@]2(C)C3=C(CC[C@@H]12)[C@@]1(C)CC[C@@]2(C)CC[C@@](C)(C(=O)O)C[C@H]2[C@]1(C)CC3` [bryonolic acid, D-C friedoolean-8-en-3β-ol-29 oic acid]: the “IC50, ChEH inhibition” value in [1] is “n.m”; in assay [1] (listed as BrA), “does not inhibit ChEH”. Moreover, the IC50 at ACAT in U-87 cells is 17.5 ± 4.8 µM; at ACAT in MB-231 cells, 29.5 ± 5.5 µM; on ACAT in MCF-7 cells it was 22.5 ± 3.7 µM; in assay [2], 19.4 ± 7.6 µM. The “IC50, competition … to ERβ” value at ERβ is listed as “n.m”. In addition, the inhibition (usually the share of the control response that was lost under treatment) at 25 µM in [3] was more than 50%. Also, the “IC50, competition with radiolabelled 17β-estradiol binding to ERα” value on ERα is “n.m”. For the same compound, in [4] (25 μM, 24 h pre-treatment, 48 h invasion, four cell lines), the “inhibition of cell invasiveness” value was “observable in the four cell lines”. For the same compound, the “effect of added cholesteryl oleate on inhibition of cell invasiveness” value in [4] (cholesteryl oleate 4 µg/mL, MB-231 and U87 cells) was “blocked the inhibition of cell invasiveness triggered by BrA”.
Take `CCCCCCCCCC[Si](C)(C)CCC(=O)NC(Cc1ccc(C)cc1)c1ccccc1` (centres unmarked) [sah 58-035, 3-[decyldimethylsilyl]-N-[2-(4-methylphenyl)-1-phenylethyl]-propanamide]: the IC50 came to 9.2 ± 2.2 µM at ACAT in U-87 cells, 9.1 ± 1.4 µM on ACAT in MB-231 cells, 5.1 ± 0.5 µM on ACAT in MCF-7 cells and 7.4 ± 1.8 µM in assay [2].
With `C[C@H]1[C@H](C)CC[C@]2(C(=O)O)CC[C@]3(C)C(=CC[C@@H]4[C@@]5(C)CC[C@H](O)C(C)(C)[C@@H]5CC[C@]43C)[C@H]12` [ursolic acid], the “IC50, ChEH inhibition” value in assay [1] is “n.m”. For the same compound, the “IC50, inhibition of ACAT activity in intact cells” value (against ACAT in U-87 cells; against ACAT in MB-231 cells; on ACAT in MCF-7 cells; in [2]) was “n.m” in each case. Also, the “IC50, competition … to ERβ” value on ERβ was “n.m”.

The values are drawn from PMC5874678, “Bryonolic Acid Blocks Cancer Cell Clonogenicity and Invasiveness through the Inhibition of Fatty Acid: Cholesteryl Ester Formation” (Biomedicines, 2018).
